According to PMC7226045, “Ensartinib (X-396) Effectively Modulates Pharmacokinetic Resistance Mediated by ABCB1 and ABCG2 Drug Efflux Transporters and CYP3A4 Biotransformation Enzyme” (Cancers, 2020):
pIC50: −log10 of the molar value.

What was measured:
ABCC1 = biological target: T1, ABCC1 (Homo sapiens, UniProt P33527); test: daunorubicin accumulation assay (flow cytometry) in MDCKII-ABCC1 cells; assay type: cell-based; details: 2 µM daunorubicin, 1 h, read-out: IC50, inhibition of daunorubicin efflux by ABCC1
T1 construct: expressed in transfected cells; host or cells: MDCKII-ABCC1 (from Dr. Alfred Schinkel, The Netherlands Cancer Institute)
T1 sequence (P33527 whole entry): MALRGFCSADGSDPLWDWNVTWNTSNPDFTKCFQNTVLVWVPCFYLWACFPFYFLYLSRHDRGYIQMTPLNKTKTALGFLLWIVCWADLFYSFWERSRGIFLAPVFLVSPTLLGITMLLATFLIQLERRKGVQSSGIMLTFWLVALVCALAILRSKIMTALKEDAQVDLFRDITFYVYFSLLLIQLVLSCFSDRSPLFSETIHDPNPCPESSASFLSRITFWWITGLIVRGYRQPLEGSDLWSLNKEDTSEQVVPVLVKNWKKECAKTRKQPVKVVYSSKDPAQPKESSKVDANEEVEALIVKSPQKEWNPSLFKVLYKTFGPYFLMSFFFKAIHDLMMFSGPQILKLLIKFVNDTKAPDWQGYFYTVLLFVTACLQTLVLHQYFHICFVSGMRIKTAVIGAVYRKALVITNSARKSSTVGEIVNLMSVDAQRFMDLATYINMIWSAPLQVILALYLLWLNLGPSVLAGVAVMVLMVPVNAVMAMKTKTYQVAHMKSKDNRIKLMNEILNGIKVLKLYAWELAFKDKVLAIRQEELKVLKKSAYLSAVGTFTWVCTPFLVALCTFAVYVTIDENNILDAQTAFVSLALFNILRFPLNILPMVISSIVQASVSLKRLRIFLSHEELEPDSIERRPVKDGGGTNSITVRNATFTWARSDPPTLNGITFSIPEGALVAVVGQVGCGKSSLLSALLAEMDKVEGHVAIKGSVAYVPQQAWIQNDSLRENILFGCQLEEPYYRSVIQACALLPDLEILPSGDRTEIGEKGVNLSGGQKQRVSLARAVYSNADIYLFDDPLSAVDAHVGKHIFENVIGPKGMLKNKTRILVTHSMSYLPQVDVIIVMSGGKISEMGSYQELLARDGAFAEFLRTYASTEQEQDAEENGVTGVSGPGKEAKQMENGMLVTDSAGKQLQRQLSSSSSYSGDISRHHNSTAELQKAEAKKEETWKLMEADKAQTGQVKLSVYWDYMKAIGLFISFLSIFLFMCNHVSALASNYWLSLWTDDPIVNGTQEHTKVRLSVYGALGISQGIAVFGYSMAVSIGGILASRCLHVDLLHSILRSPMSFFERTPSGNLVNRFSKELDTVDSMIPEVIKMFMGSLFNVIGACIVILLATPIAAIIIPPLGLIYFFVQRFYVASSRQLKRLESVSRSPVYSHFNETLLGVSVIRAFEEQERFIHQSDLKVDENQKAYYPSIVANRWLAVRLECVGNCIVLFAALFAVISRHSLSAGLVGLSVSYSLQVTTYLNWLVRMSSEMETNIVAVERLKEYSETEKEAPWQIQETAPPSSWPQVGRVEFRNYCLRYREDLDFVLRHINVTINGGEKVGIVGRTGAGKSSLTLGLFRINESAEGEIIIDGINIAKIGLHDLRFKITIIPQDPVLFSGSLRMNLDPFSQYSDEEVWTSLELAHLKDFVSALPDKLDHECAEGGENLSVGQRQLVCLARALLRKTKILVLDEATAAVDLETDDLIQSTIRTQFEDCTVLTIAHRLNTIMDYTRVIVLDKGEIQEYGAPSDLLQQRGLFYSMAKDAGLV
Method: The flow-cytometric inhibitory assay with daunorubicin and mitoxantrone was performed with minor modifications as described previously. MDCKII-par, MDCKII-ABCB1, MDCKII-ABCG2, and MDCKII-ABCC1 cell lines were seeded at densities of 22.0 × 10^4, 15.0 × 10^4, 25.0 × 10^4, and 22.0 × 10^4 cells/well, respectively, on a 12-well plate and then incubated for 24 h to reach approximately 70–80% confluence. Further steps including cell washing, the preparation of drug/model inhibitor dilutions, and their addition to cells were performed as described above. After the 10 min pre-incubation period, 2 µM daunorubicin (a substrate of ABCB1/ABCC1) or 1 µM mitoxantrone (ABCG2 substrate) were promptly added to all wells other than those containing background samples, then the plate was incubated for 1 h under standard conditions. The plates were subsequently placed on ice, the cells were washed twice with ice-cold 1× PBS, and 10× trypsin without phenol red was added. After complete trypsinization, the cells were vigorously resuspended in ice-cold 1× PBS containing 2% FBS. Samples were then transferred into test-tubes and kept on ice until their fluorescence could be measured using a flow cytometer (BD FACSCanto II, Allschwil, Switzerland). The excitation/emission wavelengths for daunorubicin and mitoxantrone were 490/565 and 640/670 nm, respectively.

ABCG2 = biological target: T2, ABCG2 (Homo sapiens, UniProt Q9UNQ0); test: MDCKII monolayer transport assay, MDCKII-ABCG2; assay type: in vitro ADME; details: dog, 1 µM ensartinib, read-out: transport ratio (r), BA/AB
T2 construct: expressed in transfected cells; host or cells: MDCKII-ABCG2 (from Dr. Alfred Schinkel, The Netherlands Cancer Institute)
T2 sequence (Q9UNQ0 1-655): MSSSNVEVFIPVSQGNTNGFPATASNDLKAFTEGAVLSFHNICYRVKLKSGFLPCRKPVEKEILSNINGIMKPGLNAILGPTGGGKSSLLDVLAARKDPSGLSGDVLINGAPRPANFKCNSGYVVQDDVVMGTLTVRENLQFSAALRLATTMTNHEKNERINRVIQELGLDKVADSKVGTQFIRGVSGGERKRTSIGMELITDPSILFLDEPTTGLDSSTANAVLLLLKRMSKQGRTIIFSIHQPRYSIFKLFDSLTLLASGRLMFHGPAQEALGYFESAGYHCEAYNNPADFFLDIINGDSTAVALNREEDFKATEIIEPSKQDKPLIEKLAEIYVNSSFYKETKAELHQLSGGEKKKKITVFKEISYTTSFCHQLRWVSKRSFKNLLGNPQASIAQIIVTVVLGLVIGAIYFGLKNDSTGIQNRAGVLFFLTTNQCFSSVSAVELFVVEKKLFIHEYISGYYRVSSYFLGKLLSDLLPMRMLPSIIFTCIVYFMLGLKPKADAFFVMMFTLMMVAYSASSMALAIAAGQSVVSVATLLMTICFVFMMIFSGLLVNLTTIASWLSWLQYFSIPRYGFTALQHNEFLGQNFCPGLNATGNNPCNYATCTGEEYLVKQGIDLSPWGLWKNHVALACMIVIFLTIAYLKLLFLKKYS
Method: (§1) Transport assays were performed on microporous polycarbonate membrane filters (3 µm pore size, 24 mm diameter, Transwell 3414; Costar, Corning, NY, USA) using MDCKII parental as well as ABCB1-, ABCG2-, and ABCC1-overexpressing MDCKII cells. The cells were seeded at a density of 1.5 × 10^6 cells per insert and cultured to full confluence for 7 days with media exchanges on the second and fourth days. Before the start of the transport experiments, inserts were washed with 1 × PBS on both the apical and basal sides. The cells were then preincubated in Opti-MEM with or without model inhibitors (1 µM LY335979, 1 µM Ko143, or 25 µM MK-571). […] Ensartinib levels in samples were measured by UHPLC-MS/MS (see below). […]
(§2) Samples from the monolayer transport assays (10 µL) were mixed with 100 µL of acetonitrile and 100 µL of methanol, vortexed for 15 min, and centrifuged at 14,500 rpm for 3 min. […] The MS source parameters were set to the following: drying gas, 320 °C, flow rate 10 l/min; sheath gas, 400 °C at 12 l/min; nebulizer pressure 25 psi; capillary voltage 4000 V; nozzle voltage 0 V. Transitions of [M+H]^+ ions were detected using a dwell time of 150 ms, a cell acceleration of 4 V, and fragmentor voltages of 137 V for 547→357, 257 and 120 transitions (corresponding to collision energies of 16, 32, and 56 V).

[1] = MDCKII monolayer transport assay, MDCKII-par; assay type: in vitro ADME, canine; details: dog, MDCK, 1 µM ensartinib, read-out: transport ratio (r), BA/AB
Method: as §1, §2

pIC50 (ABCC1): < 4.30
efflux ratio at 4 h, 1 µM (ABCG2): 1.15
efflux ratio at 4 h, 1 µM [1]: 1.01
SMILES: C[C@@H]1CN(C(=O)c2ccc(NC(=O)c3cc(O[C@H](C)c4c(Cl)ccc(F)c4Cl)c(N)nn3)cc2)C[C@H](C)N1 [ensartinib, Ensartinib]
